Measurements published in patent US12290513B2, “Therapeutic methods and compositions for treating movement disorders” (Vima Therapeutics, Inc., priority 2023, dated 2025).
Like-named read-outs stand apart in the source and are kept apart here.

Tests used:
[1] = Liver microsome stability, dog; conditions: for CLint scaled at 1 μM / microsomal CLint at 1 μM / half-life at 1 μM: liver microsomes; for CLint scaled at 1 μM: Scale-up CLint; for microsomal CLint at 1 μM: in vitro CLint; for half-life at 1 μM: in vitro t1/2, dog liver microsomes
Procedure: (§1) For the liver microsome assay: • 1. The master solution was prepared according to Table 3. All liver microsome samples were purchased from BD Gentest.
(§2) • 2. Two separate experiments were performed as follows: (i) With Cofactors (NADPH): 25 μL of 10 mM NADPH was added to the incubations. […] The reaction was started with the addition of 2.5 μL of 100 μM control compound or test compound solutions. […] Aliquots of 30 μL were taken from the reaction solution at 0.5, 5, 15, 30 and 60 minutes. The reaction was stopped by the addition of 5 volumes of cold acetonitrile with IS (100 nM alprazolam, 200 nM caffeine and 100 nM tolbutamide). Samples were centrifuged at 3,220 g for 40 minutes. Aliquots of 100 μL of the supernatant was mixed with 100 μL of ultra-pure H2O and then used for LC-MS/MS analysis to detect the levels of the test compound. • 5. All calculations were carried out using Microsoft Excel and according to standard analysis methods that are known in the art.

[2] = Liver microsome stability, human; conditions: for CLint scaled at 1 μM / microsomal CLint at 1 μM / half-life at 1 μM: liver microsomes; for CLint scaled at 1 μM: Scale-up CLint; for microsomal CLint at 1 μM: in vitro CLint; for half-life at 1 μM: in vitro t1/2, human liver microsomes
Procedure: as §1, §2

CYP2A6 = biological target: T1, CYP2A6 (Homo sapiens, UniProt P11509); assay: Incubation with recombinant CYP2A6; conditions: for t1/2: unit not given
T1 sequence (P11509 1-494): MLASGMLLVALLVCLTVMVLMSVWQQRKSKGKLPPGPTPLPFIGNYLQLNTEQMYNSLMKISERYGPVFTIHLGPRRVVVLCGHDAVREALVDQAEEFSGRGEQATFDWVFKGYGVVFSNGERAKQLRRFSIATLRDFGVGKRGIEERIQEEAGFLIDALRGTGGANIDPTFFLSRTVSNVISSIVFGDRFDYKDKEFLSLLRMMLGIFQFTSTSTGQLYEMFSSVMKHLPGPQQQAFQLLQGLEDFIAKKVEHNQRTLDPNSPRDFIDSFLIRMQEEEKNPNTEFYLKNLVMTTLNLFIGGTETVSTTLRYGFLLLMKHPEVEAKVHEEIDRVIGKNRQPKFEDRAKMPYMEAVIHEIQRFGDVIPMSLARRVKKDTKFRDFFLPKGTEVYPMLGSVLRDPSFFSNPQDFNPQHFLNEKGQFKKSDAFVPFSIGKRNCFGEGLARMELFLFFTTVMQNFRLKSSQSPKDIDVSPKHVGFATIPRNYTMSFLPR

[3] = biological target: M2 (h) (antagonist radioligand) (Homo sapiens, UniProt P08172); conditions: at the tested concentration; negative values set to zero
Chain of M2 (h) (antagonist radioligand) (P08172 whole entry): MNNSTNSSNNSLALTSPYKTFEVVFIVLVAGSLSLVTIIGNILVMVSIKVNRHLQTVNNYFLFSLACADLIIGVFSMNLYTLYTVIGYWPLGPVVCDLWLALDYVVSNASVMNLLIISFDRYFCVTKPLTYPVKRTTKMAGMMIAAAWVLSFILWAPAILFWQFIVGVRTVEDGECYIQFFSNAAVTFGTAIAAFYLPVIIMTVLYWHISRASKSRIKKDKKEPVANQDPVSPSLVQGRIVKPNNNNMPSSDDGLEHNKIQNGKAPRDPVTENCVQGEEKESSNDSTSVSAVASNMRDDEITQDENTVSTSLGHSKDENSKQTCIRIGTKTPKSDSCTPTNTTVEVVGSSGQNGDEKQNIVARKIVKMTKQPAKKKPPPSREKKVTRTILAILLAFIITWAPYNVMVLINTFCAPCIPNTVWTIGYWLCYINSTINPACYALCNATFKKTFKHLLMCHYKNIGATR

[4] = tested on: haloperidol-induced catalepsy; assay: Haloperidol-induced catalepsy (bar test); assay type: in vivo, Sprague Dawley rats; conditions: for time spent holding bar, haloperidol-induced catalepsy: rats, haloperidol 1 mg/kg sc, Rac-THP 10, 20, 30 mg/kg, R-THP or S-THP 5, 10, 15 mg/kg ip
Procedure: Animals: Adult male Sprague Dawley rats (230-235 g) from Envigo were used in this study. Upon receipt, rats were group housed in ventilated cages and acclimated for one week prior to testing.
The front paws of a rat were placed then on a horizontal metal bar raised 6″ above a Plexiglas platform. Each rat underwent 3 trials of 60 seconds each. The test ended when the animal's front paws return to the platform or after 60 seconds. Rats were tested at 30 and 60 minutes after treatment.
Data were analyzed by one-way analysis of variance (ANOVA) followed by Tukey's post-hoc comparisons, where appropriate. Data are represented as mean and standard error to the mean (SEM).

[5] = Hepatocyte stability, dog
Procedure: • 1. 10 mM stock solutions of test compounds and positive control compound were prepared in appropriate solvent (DMSO). • 2. In separate conical tubes, 10 mM test compound and positive controls were diluted to 100 μM by combining 198 μL of 50% acetonitrile/50% water and 2 μL of 10 mM stock. Preparation of Hepatocytes • 1. Incubation medium (William's E Medium supplemented with GlutaMAX) and hepatocyte thawing medium were placed in a 37C water bath and warmed for at least 15 minutes prior to use. • 2. A vial of cryopreserved hepatocytes was thawed by placing the vial in a 37C water bath and gently shaken for 2 minutes. After thawing was completed, the vial was cleaned with 70% ethanol and transferred to a biosafety cabinet. • 3. Using wide-bore pipette tips, hepatocytes were transferred into a 50 mL conical tube containing thawing medium. The 50 mL conical tube was placed into a centrifuge and spun at 100 g for 10 minutes. […] Using AO/PI Staining, cells were counted to determine the viable cell density. Cells were diluted with incubation medium to a working cell density of 0.5×10^6 viable cells/mL. Procedure for Stability Determination • 1. 198 μL of hepatocytes were pipetted into each well of a 96-well non-coated plate. The plate was placed in the incubator to allow the hepatocytes to warm for 10 minutes. • 2. 2 μL of the 100 μM test compound or positive control was pipetted into respective wells of the 96-well non-coated plate to start the reaction. The plate was returned to the incubator for the designed time points. • 3. The contents of the wells were removed in 25 μL aliquots at time points of 0.5, 15, 30, 60, 90 and 120 minutes. The aliquots were then mixed with 6 volumes (150 μL) of acetonitrile containing an internal standard, IS (100 nM alprazolam, 200 nM caffeine and 100 nM tolbutamide), to terminate the reaction. Samples were vortexed for 5 minutes and centrifuged for 45 minutes at 3,220 g. Aliquots of 100 μL of supernatant were diluted with 100 μL ultra-pure water, and the mixture was used for LC/MS/MS analysis. All incubations were performed in duplicate. Data Analysis
All calculations were carried out using Microsoft Excel and according to standard analysis methods that are known in the art.

[6] = Procedure: The resulting metabolites were analyzed by liquid chromatography-mass spectrometry, and metabolite peaks were detected and measured.
[7] = Liver microsome stability, rat; conditions: for CLint scaled at 1 μM / microsomal CLint at 1 μM / half-life at 1 μM: liver microsomes; for CLint scaled at 1 μM: Scale-up CLint; for microsomal CLint at 1 μM: in vitro CLint; for half-life at 1 μM: in vitro t1/2, rat liver microsomes
Procedure: as §1, §2

[8] = biological target: D2S (h) (agonist radioligand) (Homo sapiens, UniProt P14416); conditions: at the tested concentration; negative values set to zero
Chain of D2S (h) (agonist radioligand) (P14416 1-414 isoform P14416-2): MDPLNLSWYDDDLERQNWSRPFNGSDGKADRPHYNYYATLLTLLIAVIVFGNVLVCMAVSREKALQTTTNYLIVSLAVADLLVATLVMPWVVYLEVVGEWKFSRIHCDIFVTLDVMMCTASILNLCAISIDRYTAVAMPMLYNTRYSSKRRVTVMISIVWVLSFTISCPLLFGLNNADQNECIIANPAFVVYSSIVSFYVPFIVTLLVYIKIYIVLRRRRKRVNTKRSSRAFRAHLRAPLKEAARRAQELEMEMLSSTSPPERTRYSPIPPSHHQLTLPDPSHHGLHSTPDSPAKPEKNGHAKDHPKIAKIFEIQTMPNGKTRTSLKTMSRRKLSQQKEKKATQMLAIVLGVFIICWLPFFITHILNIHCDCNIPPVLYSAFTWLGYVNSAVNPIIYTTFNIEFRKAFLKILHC

CYP3A5 = CYP3A5 (Homo sapiens, UniProt P20815); assay: Incubation with recombinant CYP3A5
Chain of CYP3A5 (P20815 whole entry): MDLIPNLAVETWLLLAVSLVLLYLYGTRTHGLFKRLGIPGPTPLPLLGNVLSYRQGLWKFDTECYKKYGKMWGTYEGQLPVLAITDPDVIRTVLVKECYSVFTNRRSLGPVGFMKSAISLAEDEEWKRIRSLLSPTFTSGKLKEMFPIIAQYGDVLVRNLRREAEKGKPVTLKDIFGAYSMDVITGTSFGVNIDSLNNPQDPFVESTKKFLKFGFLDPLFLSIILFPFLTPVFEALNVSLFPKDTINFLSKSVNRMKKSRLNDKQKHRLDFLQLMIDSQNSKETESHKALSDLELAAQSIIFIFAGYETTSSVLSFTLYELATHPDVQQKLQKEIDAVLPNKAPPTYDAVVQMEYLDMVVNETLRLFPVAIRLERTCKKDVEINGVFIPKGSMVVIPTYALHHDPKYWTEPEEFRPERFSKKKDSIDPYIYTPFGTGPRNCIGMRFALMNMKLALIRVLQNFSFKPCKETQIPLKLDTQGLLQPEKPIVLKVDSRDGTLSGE

[9] = tested on: Cerep87 Safety Panel receptors; assay: Cerep87 Safety Panel (Eurofins), whole panel statements; assay type: binding
[10] = dog, dog liver microsomes, Example 15, Table 20
[11] = human, human liver microsomes, Example 15, Table 20
[12] = rat, rat liver microsomes, Example 15, Table 20

| CLint scaled at 1 μM [1, 10] | microsomal CLint at 1 μM [1, 10] | half-life at 1 μM ([1]; dog, Example 15, Table 20) | CLint scaled at 1 μM [2, 11] | microsomal CLint at 1 μM [2, 11] | half-life at 1 μM ([2]; human, Example 15, Table 20) | CLint (CYP2A6) | t1/2 (CYP2A6) | signal, M2 (h) (antagonist radioligand) [3] | CLint scaled at 1 μM [7, 12] | microsomal CLint at 1 μM [7, 12] | half-life at 1 μM ([7]; rat, Example 15, Table 20) | signal, D2S (h) (agonist radioligand) [8] | Substrates of CYP3A5 (CYP3A5) | SMILES | time spent holding bar, haloperidol-induced catalepsy ([4]; 30 minutes after injection) | time spent holding bar, haloperidol-induced catalepsy ([4]; 60 minutes after injection) | further results |
| --- | --- | --- | --- | --- | --- | --- | --- | --- | --- | --- | --- | --- | --- | --- | --- | --- | --- |
| 318 mL/min/kg | 180 µL/min/mg | 7.69 min | 20.4 mL/min/kg | 19.9 µL/min/mg | 69.7 min | 0.00 µL/min/pmol | ∞ | 98.95% | 5330 mL/min/kg | 2190 µL/min/mg | 0.63 min | 0.23% | Rac, R and S | O[C@@](CCN1CCCCC1)(c1ccccc1)C1CCCCC1 [(R)-THP, (R)-trihexyphenidyl] | significantly attenuated haloperidol-induced catalepsy | significantly attenuated haloperidol-induced catalepsy | CLint scaled at 1 μM ([1]; dog, dog liver microsomes, Table 5): 257 mL/min/kg; microsomal CLint at 1 μM ([1]; dog, dog liver microsomes, with NADPH, Table 5): 146 µL/min/mg; half-life at 1 μM ([1]; dog, with NADPH, 1 μM, Table 5): 9.51 min; CLint scaled at 1 μM ([2]; human, human liver microsomes, Table 5): 21.8 mL/min/kg; microsomal CLint at 1 μM ([2]; human, human liver microsomes, with NADPH, Table 5): 21.2 µL/min/mg; half-life at 1 μM ([2]; human, with NADPH, 1 μM, Table 5): 65.8 min; Efficacy of R-THP versus Rac-THP over a dosage range ([4]; catalepsy control, FIG. 6): half a dose of R-THP controls catalepsy at least as effectively as a full dose of Rac-THP; CLint scaled at 1 μM ([5]; cryopreserved hepatocytes): 187 mL/min/kg; half-life at 1 μM ([5]; cryopreserved hepatocytes): 40.2 min; hepatocyte CLint at 1 μM ([5]; cryopreserved hepatocytes): 34.5 µL/min/1e6 cells; metabolites detected [6]: no (R)-THP metabolites were present at a significant level above parent molecule; CLint scaled at 1 μM ([7]; rat, rat liver microsomes, Table 5): 5810 mL/min/kg; microsomal CLint at 1 μM ([7]; rat, rat liver microsomes, with NADPH, Table 5): 2380 µL/min/mg; half-life at 1 μM ([7]; rat, with NADPH, 1 μM, Table 5): 0.58 min |
| – | – | – | – | – | – | – | – | – | – | – | – | – | – | C[C@@H](C[N+](C)(C)C)OC(N)=O.[Cl-] [(S)-BTC, (S)-bethanechol] | – | – | Predicted Hepatic CLH ([1]; dog liver microsomes, Table 5): 0.00 mL/min/kg; in vitro t1/2 ([1]; dog, microsomes): ∞; Predicted Hepatic CLH ([2]; human liver microsomes, Table 5): 0.00 mL/min/kg; in vitro t1/2 ([2]; human, microsomes): ∞; antagonism at muscarinic receptors of the panel ([9]; only muscarinic receptors): greater than 50%; Predicted Hepatic CLH ([5]; hepatocytes): 0 mL/min/kg; in vitro t1/2 ([5]; hepatocytes): ∞; Predicted Hepatic CLH ([7]; rat liver microsomes, Table 5): 0.00 mL/min/kg; in vitro t1/2 ([7]; rat, microsomes): ∞ |
| 429 mL/min/kg | 244 µL/min/mg | 5.72 min | 58.9 mL/min/kg | 57.3 µL/min/mg | 24.2 min | 0.00 µL/min/pmol | ∞ | 77.76% | 1870 mL/min/kg | 768 µL/min/mg | 1.8 min | 35.79% | Rac, R and S | O[C@](CCN1CCCCC1)(c1ccccc1)C1CCCCC1 [(S)-THP, (S)-trihexyphenidyl] | did not significantly differ from those of haloperidol-treated rats | no significant differences | non-muscarinic receptors signaled through ([9]; greater than 25% signal): nine; metabolites detected ([6]; human): two metabolites 18 and 19 were detected at substantial levels; half-life (CYP3A5; human): 48.7 min |
